Assay results as given in patent publication US20220281876A1, “DEGRADATION OF BRUTON'S TYROSINE KINASE (BTK) BY CONJUGATION OF BTK INHIBITORS WITH E3 LIGASE LIGAND AND METHODS OF USE” (BEIGENE, LTD., priority 2019, published 2022).

The compounds below were run against T1, BTK (Homo sapiens, UniProt Q06187) (assay: BTK cell degradation in Ramos cells (total BTK ELISA)). Conditions: 16 h incubation, FastScan total BTK ELISA.
T1 construct: endogenous in cells; host or cells: Ramos cells
Type: cell-based
Method: Ramos cells are treated with compounds diluted in 0.1% DMSO, dilution is done according to the following protocol: (1) make 1000x stock solution in DMSO from 10 mM by 5-fold dilution, total 7 doses were included; (2) make 10x solution in cell culture medium by transferring 1 ul 1000x stock solution into 99 ul medium; (3) 11 ul of 10× solution is added to cells and incubate for 16 h.
Cells in 96 well plate are harvested by centrifugation (1200 rpm), and wash once with ice-cold PBS. Then, 100 ul 1×cell extraction buffer is added in each well. The cells are placed on a shaker for 20 min at 4° C.; 5 ul lysate is transferred to 45 ul of 1×cell extraction buffer in ELISA plate, and 50 ul of the antibody cocktail is added in each well; seal the plate and incubate 1 hour at room temperature on a plate shaker; medium is discarded from the plate, tap the plated on a paper towel, wash 3×200 ul ELISA wash buffer; add 100 ul of TMB to each well and incubate the plate in the dark for 15 min at room temperature on a shaker; add 100 ul of STOP solution to each well; read absorbance at 450 nm. The BTK ELISA assay was performed using FastScan total BTK ELISA kit (Cell Signaling Cat #36609).

T1 sequence (Q06187 whole entry): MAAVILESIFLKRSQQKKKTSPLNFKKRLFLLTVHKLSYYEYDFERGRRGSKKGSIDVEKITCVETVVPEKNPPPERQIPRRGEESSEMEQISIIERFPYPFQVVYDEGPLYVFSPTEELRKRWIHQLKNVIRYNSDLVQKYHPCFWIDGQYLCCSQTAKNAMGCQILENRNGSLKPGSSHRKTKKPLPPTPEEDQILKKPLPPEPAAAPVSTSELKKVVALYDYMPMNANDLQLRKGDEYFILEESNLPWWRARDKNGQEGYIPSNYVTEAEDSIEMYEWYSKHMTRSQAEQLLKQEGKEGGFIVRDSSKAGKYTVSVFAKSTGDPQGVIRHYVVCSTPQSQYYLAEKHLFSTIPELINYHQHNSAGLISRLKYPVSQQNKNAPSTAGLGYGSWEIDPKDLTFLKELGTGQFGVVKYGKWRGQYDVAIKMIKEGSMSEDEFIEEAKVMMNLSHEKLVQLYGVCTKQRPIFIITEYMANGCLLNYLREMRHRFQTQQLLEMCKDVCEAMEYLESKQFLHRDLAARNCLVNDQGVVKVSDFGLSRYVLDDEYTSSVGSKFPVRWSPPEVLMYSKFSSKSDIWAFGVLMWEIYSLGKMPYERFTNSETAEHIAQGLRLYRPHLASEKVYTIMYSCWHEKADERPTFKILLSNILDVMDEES

| Compound | DC50 [nM] |
| --- | --- |
| NC(=O)c1c(-c2ccc(Oc3ccccc3)cc2)nn2c1NCC[C@H]2C1CCN(C(=O)c2cn(CCOCCOCCOCCOCCOCCOCCOCCNc3cccc4c3C(=O)N(C3CCC(=O)NC3=O)C4=O)nn2)CC1 (stereo partly drawn) [Example 17, (7S)-7-(1-(1-(23-((2-(2,6-dioxopiperidin-3-yl)-1,3-dioxoisoindolin-4-yl)amino)-3,6,9, 12, 15, 18, 21-heptaoxatricosyl)-1H-1,2,3-triazole-4-carbonyl)piperidin-4-yl)-2-(4-phenoxyphenyl)-4,5,6,7-tetrahydropyrazolo[1,5-a]pyrimidine-3-carboxamide] | > 10000 |
| NC(=O)c1c(-c2ccc(Oc3ccccc3)cc2)nn2c1NCC[C@H]2C1CCN(C(=O)CCCc2cn(CCOCCNc3cccc4c3C(=O)N(C3CCC(=O)NC3=O)C4=O)nn2)CC1 (stereo partly drawn) [Example 18, (7S)-7-(1-(4-(1-(2-(2-((2-(2,6-dioxopiperidin-3-yl)-1,3-dioxoisoindolin-4-yl)amino)ethoxy)ethyl)-1H-1,2,3-triazol-4-yl)butanoyl)piperidin-4-yl)-2-(4-phenoxyphenyl)-4,5,6,7-tetrahydropyrazolo[1,5-a]pyrimidine-3-carboxamide] | 236 |
| NC(=O)c1c(-c2ccc(Oc3ccccc3)cc2)nn2c1NCC[C@H]2C1CCN(C(=O)CCCc2cn(CCCCNC(=O)COc3cccc4c3C(=O)N(C3CCC(=O)NC3=O)C4=O)nn2)CC1 (stereo partly drawn) [Example 19, (7S)-7-(1-(4-(1-(4-(2-((2-(2,6-dioxopiperidin-3-yl)-1,3-dioxoisoindolin-4-yl)oxy)acetamido)butyl)-1H-1,2,3-triazol-4-yl)butanoyl)piperidin-4-yl)-2-(4-phenoxyphenyl)-4,5,6,7-tetrahydropyrazolo[1,5-a]pyrimidine-3-carboxamide] | 6410 |
| NC(=O)c1c(-c2ccc(Oc3ccccc3)cc2)nn2c1NCC[C@H]2C1CCN(C(=O)CCCc2cn(CCOCCOCCNc3cccc4c3C(=O)N(C3CCC(=O)NC3=O)C4=O)nn2)CC1 (stereo partly drawn) [Example 20, (7S)-7-(1-(4-(1-(2-(2-(2-((2-(2,6-dioxopiperidin-3-yl)-1,3-dioxoisoindolin-4-yl)amino)ethoxy)ethoxy)ethyl)-1H-1,2,3-triazol-4-yl)butanoyl)piperidin-4-yl)-2-(4-phenoxyphenyl)-4,5,6,7-tetrahydropyrazolo[1,5-a]pyrimidine-3-carboxamide] | > 10000 |
| NC(=O)c1c(-c2ccc(Oc3ccccc3)cc2)nn2c1NCC[C@H]2C1CCN(C(=O)CCCc2cn(CCOCCOCCOCCNc3cccc4c3C(=O)N(C3CCC(=O)NC3=O)C4=O)nn2)CC1 (stereo partly drawn) [Example 21, (7S)-7-(1-(4-(1-(2-(2-(2-(2-((2-(2,6-dioxopiperidin-3-yl)-1,3-dioxoisoindolin-4-yl)amino)ethoxy)ethoxy)ethoxy)ethyl)-1H-1,2,3-triazol-4-yl)butanoyl)piperidin-4-yl)-2-(4-phenoxyphenyl)-4,5,6,7-tetrahydropyrazolo[1,5-a]pyrimidine-3-carboxamide] | 388 |
| NC(=O)c1c(-c2ccc(Oc3ccccc3)cc2)nn2c1NCC[C@H]2C1CCN(CCOCCOCC(=O)Nc2ccc3c(c2)C(=O)N(C2CCC(=O)NC2=O)C3=O)CC1 (stereo partly drawn) [Example 24, (7S)-7-(1-(2-(2-(2-((2-(2,6-dioxopiperidin-3-yl)-1,3-dioxoisoindolin-5-yl)amino)-2-oxoethoxy)ethoxy)ethyl)piperidin-4-yl)-2-(4-phenoxyphenyl)-4,5,6,7-tetrahydropyrazolo[1,5-a]pyrimidine-3-carboxamide] | 34 |
| NC(=O)c1c(-c2ccc(Oc3ccccc3)cc2)nn2c1NCC[C@H]2C1CCN(C(=O)COCCCCCCCCNC(=O)COc2cccc3c2CN(C2CCC(=O)NC2=O)C3=O)CC1 (stereo partly drawn) [Example 25, (7S)-7-(1-(2-((8-(2-((2-(2,6-dioxopiperidin-3-yl)-1-oxoisoindolin-4-yl)oxy)acetamido)octyl)oxy)acetyl)piperidin-4-yl)-2-(4-phenoxyphenyl)-4,5,6,7-tetrahydropyrazolo[1,5-a] pyrimidine-3-carboxamide] | > 10000 |
| NC(=O)c1c(-c2ccc(Oc3ccccc3)cc2)nn2c1NCC[C@H]2C1CCN(C(=O)COCCCCCCCCNc2cccc3c2C(=O)N(C2CCC(=O)NC2=O)C3=O)CC1 (stereo partly drawn) [Example 26, (7S)-7-(1-(2-((8-((2-(2,6-dioxopiperidin-3-yl)-1,3-dioxoisoindolin-4-yl)amino)octyl)oxy)acetyl)piperidin-4-yl)-2-(4-phenoxyphenyl)-4,5,6,7-tetrahydropyrazolo[1,5-a]pyrimidine-3-carboxamide] | > 10000 |
| NC(=O)c1c(-c2ccc(Oc3ccccc3)cc2)nn2c1NCC[C@H]2C1CCN(C(=O)COCCOCCOCCOCCNc2cccc3c2C(=O)N(C2CCC(=O)NC2=O)C3=O)CC1 (stereo partly drawn) [Example 27, (7S)-7-(1-(14-((2-(2,6-dioxopiperidin-3-yl)-1,3-dioxoisoindolin-4-yl)amino)-3,6,9, 12-tetraoxatetradecanoyl)piperidin-4-yl)-2-(4-phenoxyphenyl)-4,5,6,7-tetrahydropyrazolo[1,5-a]pyrimidine-3-carboxamide] | > 10000 |
| NC(=O)c1c(-c2ccc(Oc3ccccc3)cc2)nn2c1NCC[C@H]2C1CCN(C(=O)COCCOCCNC(=O)CCN2CCN(c3ccc4c(c3)C(=O)N(C3CCC(=O)NC3=O)C4=O)CC2)CC1 (stereo partly drawn) [Example 28, (7S)-7-(1-(2-(2-(2-(3-(4-(2-(2,6-dioxopiperidin-3-yl)-1,3-dioxoisoindolin-5-yl)piperazin-1-yl)propanamido)ethoxy)ethoxy)acetyl)piperidin-4-yl)-2-(4-phenoxyphenyl)-4,5,6,7-tetrahydropyrazolo[1,5-a]pyrimidine-3-carboxamide] | 1480 |
| NC(=O)c1c(-c2ccc(Oc3ccccc3)cc2)nn2c1NCC[C@H]2C1CCN(C(=O)COCCOCCOCCOCCNC(=O)COc2cccc3c2CN(C2CCC(=O)NC2=O)C3=O)CC1 (stereo partly drawn) [Example 29, (7S)-7-(1-(1-((2-(2,6-dioxopiperidin-3-yl)-1-oxoisoindolin-4-yl)oxy)-2-oxo-6,9, 12, 15-tetraoxa-3-azaheptadecan-17-oyl)piperidin-4-yl)-2-(4-phenoxyphenyl)-4,5,6,7-tetrahydropyrazolo[1,5-a]pyrimidine-3-carboxamide] | 458 |
| NC(=O)c1c(-c2ccc(Oc3ccccc3)cc2)nn2c1NCC[C@H]2C1CCN(C(=O)CCCCNc2cccc3c2C(=O)N(C2CCC(=O)NC2=O)C3=O)CC1 (stereo partly drawn) [Example 31, (7S)-7-(1-(5-((2-(2,6-dioxopiperidin-3-yl)-1,3-dioxoisoindolin-4-yl)amino)pentanoyl)piperidin-4-yl)-2-(4-phenoxyphenyl)-4,5,6,7-tetrahydropyrazolo[1,5-a]pyrimidine-3-carboxamide] | > 10000 |
| NC(=O)c1c(-c2ccc(Oc3ccccc3)cc2)nn2c1NCC[C@H]2C1CCN(C(=O)CCCNc2cccc3c2C(=O)N(C2CCC(=O)NC2=O)C3=O)CC1 (stereo partly drawn) [Example 32, (7S)-7-(1-(4-((2-(2,6-dioxopiperidin-3-yl)-1,3-dioxoisoindolin-4-yl)amino)butanoyl)piperidin-4-yl)-2-(4-phenoxyphenyl)-4,5,6,7-tetrahydropyrazolo[1,5-a]pyrimidine-3-carboxamide] | > 10000 |
| NC(=O)c1c(-c2ccc(Oc3ccccc3)cc2)nn2c1NCC[C@H]2C1CCN(C(=O)CCCNC(=O)COCCOCCOCCOCCNc2cccc3c2C(=O)N(C2CCC(=O)NC2=O)C3=O)CC1 (stereo partly drawn) [Example 34, (7S)-7-(1-(1-((2-(2,6-dioxopiperidin-3-yl)-1,3-dioxoisoindolin-4-yl)amino)-14-oxo-3,6,9, 12-tetraoxa-15-azanonadecan-19-oyl)piperidin-4-yl)-2-(4-phenoxyphenyl)-4,5,6,7-tetrahydropyrazolo[1,5-a]pyrimidine-3-carboxamide] | 1890 |
| NC(=O)c1c(-c2ccc(Oc3ccccc3)cc2)nn2c1NCC[C@H]2C1CCN(C(=O)COCCOCCNC(=O)CCCCN2CCN(c3ccc4c(c3)C(=O)N(C3CCC(=O)NC3=O)C4=O)CC2)CC1 (stereo partly drawn) [Example 35, (7S)-7-(1-(2-(2-(2-(5-(4-(2-(2,6-dioxopiperidin-3-yl)-1,3-dioxoisoindolin-5-yl)piperazin-1-yl)pentanamido)ethoxy)ethoxy)acetyl)piperidin-4-yl)-2-(4-phenoxyphenyl)-4,5,6,7-tetrahydropyrazolo[1,5-a]pyrimidine-3-carboxamide] | 326 |
| CN(CCOCCNc1cccc2c1C(=O)N(C1CCC(=O)NC1=O)C2=O)CCC(=O)N1CCC([C@@H]2CCNc3c(C(N)=O)c(-c4ccc(Oc5ccccc5)cc4)nn32)CC1 (stereo partly drawn) [Example 37, (7S)-7-(1-(3-((2-(2-((2-(2,6-dioxopiperidin-3-yl)-1,3-dioxoisoindolin-4-yl)amino)ethoxy)ethyl)(methyl)amino)propanoyl)piperidin-4-yl)-2-(4-phenoxyphenyl)-4,5,6,7-tetrahydropyrazolo[1,5-a]pyrimidine-3-carboxamide] | 120 |
| CN(CCNc1cccc2c1C(=O)N(C1CCC(=O)NC1=O)C2=O)CCC(=O)N1CCC([C@@H]2CCNc3c(C(N)=O)c(-c4ccc(Oc5ccccc5)cc4)nn32)CC1 (stereo partly drawn) [Example 38, (7S)-7-(1-(3-((2-((2-(2,6-dioxopiperidin-3-yl)-1,3-dioxoisoindolin-4-yl)amino)ethyl)(methyl)amino)propanoyl)piperidin-4-yl)-2-(4-phenoxyphenyl)-4,5,6,7-tetrahydropyrazolo[1,5-a]pyrimidine-3-carboxamide] | 371 |
